Data published in patent EP4125996B1, “EZRIN PEPTIDE 1 FOR USE IN A METHOD OF TREATING COVID-19” (priority 2020, dated 2024).
Ends that are not written are not given here.

Columns and labels:
SARS-CoV-2 = experiment: Case reports: subcutaneous Ezrin peptide 1 in patients with COVID-19; assay type: in vivo, humans
[1] = high dosages of 50 mg per kg body weight per day or higher; no test or source given; cited from earlier work
J-96 Human Cell Line = details: cell cultures; R. Ataullakhanov et al. 2005; cited from earlier work

## TEKKRRETVEREKE [Ezrin peptide 1, NH2_Thr-Glu-Lys-Lys-Arg-Arg-Glu-Thr-Val-Glu-Arg-Glu-Lys-Glu_COOH]
SARS-CoV-2; Example 1, patient, 0.2 mg s.c. daily, 15.03.2020, 2nd administration
  Course of Disease (symptoms): increasing symptoms
SARS-CoV-2; Example 1, 0.2 mg s.c. daily, 16.03.2020, 3rd administration
  Course of Disease (symptoms): increasing symptoms with strong eye pain
SARS-CoV-2; Example 1, 0.2 mg s.c. daily, 17.03.2020, 4th administration
  Course of Disease (symptoms): increasing symptoms with more cough
SARS-CoV-2; Example 1, 0.2 mg s.c. daily, 18.03.2020, 5th administration
  Course of Disease (symptoms): significant signs of recovery, no eye pain, decreasing fever
SARS-CoV-2; Example 1, 0.2 mg s.c. daily, 19.03.2020, 6th administration
  Course of Disease (symptoms): significant signs of recovery, normal body temperature, no fatigue
SARS-CoV-2; Example 1, 0.2 mg s.c. daily, 20.03.2020, 7th administration
  Course of Disease (symptoms): return of taste, good general condition
SARS-CoV-2; Example 1, 0.2 mg s.c. daily, 21.03.2020, 8th administration
  Course of Disease (symptoms): no signs of illness anymore
SARS-CoV-2; Example 1, compared with the course expected for patients of this risk group
  course of the disease (duration): significantly shorter
SARS-CoV-2; Example 1, compared with what is expected in a patient of this risk group
  severity of symptoms after administration: significantly lower
SARS-CoV-2; Example 2, patient, 2 mg s.c. per dose, 25.04.2020 in the morning, second dose
  body temperature: 37.5 °C
SARS-CoV-2; Example 2, 2 mg s.c., 25.04.2020 in the evening
  body temperature: 39.0 °C
SARS-CoV-2; Example 2, 2 mg s.c., 25.04.2020, second dose
  Course of Disease (symptoms): still general weakness, shortness of breath, cough, loss of appetite
SARS-CoV-2; Example 2, 2 mg s.c., 26.04.2020 in the evening
  body temperature: 37.5 °C
SARS-CoV-2; Example 2, 2 mg s.c., 26.04.2020, third administration
  Course of Disease (symptoms): Still loss of appetite, slight cough
SARS-CoV-2; Example 2, 2 mg s.c., 27.04.2020
  body temperature: 37.4 °C
SARS-CoV-2; Example 2, 2 mg s.c., 27.04.2020, fourth dose
  Course of Disease (symptoms): Slight cough, slight headache
SARS-CoV-2; Example 2, 2 mg s.c., 28.04.2020
  body temperature: 37.3 °C
SARS-CoV-2; Example 2, 2 mg s.c., 28.04.2020, fifth administration
  Course of Disease (symptoms): Only slight pain of touching the scalp, still slight weakness
SARS-CoV-2; Example 2, 2 mg s.c., 30.04.2020, sixth administration
  Course of Disease (symptoms): Significant improvement of clinical symptoms, normal temperature
SARS-CoV-2; Example 2, 01. to 04.05.2020, after six doses, antibiotic coverage due to increased CRP level
  Course of Disease (symptoms): taste completely returned, no more cough, no more fever, clinical well-being
SARS-CoV-2; Example 3, patient, 2 mg/d then 0.2 mg/d for four days s.c., 25.12.2020 (therapy begun 23.12.2020)
  Course of Disease (symptoms): significant improvement of cough and general condition
SARS-CoV-2; Example 3, after completion of HEP-1 therapy
  Course of Disease (symptoms): No further symptoms
SARS-CoV-2; Example 4, patient, 2 mg/d for two days then 0.2 mg/d for four days s.c., 25.12.2020 (therapy begun 23.12.2020)
  Course of Disease (symptoms): significant improvement of cough and general condition
SARS-CoV-2; Example 4, after completion of HEP-1 therapy
  Course of Disease (symptoms): No further symptoms
SARS-CoV-2; Example 5, patient, 2 mg/d for two days then 0,2 mg/d for four days s.c., 26.12.2020 (therapy begun 23.12.2020)
  Course of Disease (symptoms): significant improvement of symptoms
SARS-CoV-2; Example 5, after completion of the initial HEP-1 therapy
  Course of Disease (symptoms): No further symptoms after completion of HEP-1 therapy until 13.01.2021, then severe shortness of breath
SARS-CoV-2; Example 5, after subsequent 0,2 mg/d s.c. for fourteen days from 15.01.2021
  Course of Disease (shortness of breath): No further shortness of breath
SARS-CoV-2; Example 6, patient, 0.2 mg/d s.c. for ten days from 10.12.2020, 14.12.2020
  Course of Disease (symptoms): significant improvement of symptoms
SARS-CoV-2; Example 6, 0.2 mg/d s.c. for ten days, 20.12.2020
  Course of Disease (symptoms): complete recovery of symptoms
[1]
  toxicity: not toxic
J-96 Human Cell Line
  anti-viral effect: has shown an anti-viral effect
